The test deals with Plasmodium falciparum. As to the kind of experiment: GSK_TCMDC: Inhibition of Plasmodium falciparum 3D7 in whole erythrocytes, using parasite LDH activity as an index of growth. It counts as functional, organism-based. Particulars: Plasmodium falciparum, 3D7.
For the compound `COc1ccc2nc(C)cc(N/N=C/c3ccc([N+](=O)[O-])cc3)c2c1`, the XC50 was 0.695 µM.
`Cc1cc(C)c2ncc(C(=O)O)c(O)c2c1` came in with an XC50 of 0.878 µM.
`Cc1cnc(C(=O)Nc2cccc(-c3ccc(-c4nc5cc(F)ccc5[nH]4)cc3)c2)cn1` registered an XC50 of 0.637 µM.
With `COc1cccc(Nc2nc(C)cc(NC3CCCC3)n2)c1`, the XC50 worked out at 1.11 µM.
The compound `Cc1cc(N2CCOCC2)nc(Nc2ccc(NC(=O)Nc3ccc(F)cc3)cc2)n1` showed an XC50 of 0.495 µM.
Take `CCOC(=O)c1ccc(NC(=O)N[C@@H](Cc2ccc(O)cc2)C(=O)NC2CCN(Cc3ccc4c(c3)OCO4)CC2)cc1`: the XC50 came to 1.06 µM.
With `O=C(Nc1cccc(Cl)c1)OC1CCCN2CCCCC12` (stereo not drawn), the XC50 worked out at 1.02 µM.
`CCc1ccc(S(=O)(=O)Nc2ccc(CCN(C)C3CCN(C)CC3)cc2)cc1` had an XC50 of 1.06 µM.
As to `Cc1ccc(Cn2ncc(N3CCCNCC3)c(Cl)c2=O)cc1NC(=O)Nc1ccc(-c2ccccc2)cc1`, the XC50 turned out to be 0.625 µM.
With `CN1CCN(c2ccc(-c3cccc(NC(=O)c4ccc5ccccc5c4)c3)nn2)CC1`, the XC50 stood at 0.383 µM.
`N=C(Cc1ccc(Cl)cc1)NCCN1CCCCCC1` came in with an XC50 of 0.742 µM.
Compound `Cc1cc(NCCC(=O)NCCOc2ccccc2)nc(NCCc2ccc(F)cc2)n1` yielded an XC50 of 0.94 µM.
Next, `O=C1Nc2ccc3ncccc3c2/C1=C/Nc1ccc(Cn2ccnc2)cc1`: 0.659 µM; `NC1CCN(Cc2cccc(-c3ccc(-c4nc5ccccc5[nH]4)s3)c2)C1` (stereo not drawn): 0.727 µM; `COc1ccc(-c2c(C(F)(F)F)nn(C)c2NC(=O)Nc2ccc(F)cc2F)cc1`: 0.797 µM.
Turning to `CCOC(C(=O)OCCN(C(C)C)C(C)C)(c1ccccc1)c1ccccc1`, the XC50 was 0.874 µM.
Turning to `Cc1cccc2c(C3CCN(CC4CCC(NC(=O)/C=C/c5ccc(Cl)c(Cl)c5)CC4)CC3)c[nH]c12` (stereo not drawn), the XC50 came to 1.03 µM.
The figure for `Cc1cc(C2CCN(CCCCNC(=O)c3ccc(NC(=O)c4ccc(Cl)cc4)cc3)CC2)c(C)cc1OC(C)C` is 0.744 µM; for `COc1ccc(N2CCN(CCCCNC(=O)c3ccc(NC(=O)c4ccc(OC(F)(F)F)cc4)cc3)CC2)c(OC)c1` it is 0.578 µM; for `O=C(c1cccs1)N1CCN(c2ccc([N+](=O)[O-])c(NC3CC3)c2)CC1` it is 0.767 µM.
`Cc1cc(C(=O)NCc2ccc(-c3c(C)noc3C)cc2)n(-c2ccccc2)n1` yielded an XC50 of 0.825 µM.
In the case of `O=C(NC1CCC1)C1CCN(C(c2ccc(Cl)cc2)c2ccc(Cl)cc2)CC1`, the XC50 turned out to be 0.562 µM.
The figure for `CC(C)c1cc(Oc2c(I)cc(CCCc3ncc[nH]3)cc2I)ccc1O` is 1.12 µM.
Next, `CC(C)N1CCCN(C(=O)C2CCN(c3ccc(C(=O)N4CCCC4)cn3)CC2)CC1`: 1.06 µM.
In turn, `Cc1ccc(C)c2sc(N3CCN(C(=O)c4ccc([N+](=O)[O-])o4)CC3)nc12` had an XC50 of 0.819 µM.
In the case of `CN(C)Cc1cccc(-c2ccc(NC(=O)c3ccc4c(=O)n(Cc5ccoc5)cnc4c3)cc2)c1`, the XC50 came to 0.77 µM.
As to `Cc1[nH]c2ccccc2c1CC1CCN(CC2CCN(C(=O)/C=C/c3ccc(Cl)c(Cl)c3)CC2)CC1`, the XC50 was determined as 0.95 µM.
Compound `CC(=O)C=C1CC(=O)N(C[C@@H](O)[C@H]2O[C@@H]3OC(C)(C)O[C@@H]3[C@H]2O)c2ccccc2N1` came in with an XC50 of 1.26 µM.
Next, `Cc1cccc2nc(-c3cccc(-c4cccc(NC(=O)Nc5ccc(Cl)c(Cl)c5)c4)c3)[nH]c12`: 0.375 µM.
On to `CCC(=O)N[C@@H]1CN[C@@H](C#Cc2cc3c(Nc4ccc(OCc5cccc(F)c5)c(Cl)c4)ncnc3s2)C1`, for which the XC50 came out at 1.12 µM.
`O=C(Nc1cccc(CN2CCCN(Cc3ccc(O)cc3)CC2)c1)c1cc(F)cc(F)c1` came in with an XC50 of 0.658 µM.
`Cc1cccc2nc(-c3ccc(-c4cccc(CNCc5cccc(N)c5)c4)s3)[nH]c12` yielded an XC50 of 0.517 µM.
As to `Cc1cc(-c2ccc(CNCCc3cccs3)cc2)ccc1S(=O)(=O)NCc1ccccc1`, the XC50 came to 1.14 µM.
With `CC(C)C[C@H](NC(=O)c1cc2ccccc2s1)C(=O)N[C@H]1CCN(Cc2ccc(OCCN3CCNCC3)c3ccccc23)C1`, the XC50 was determined as 1.42 µM.
Take `COc1cc2c(Nc3ccc(Br)cc3F)ncnc2cc1OCC1CCN(C)CC1`: the XC50 was 0.77 µM.
The compound `COc1ccc2ccc(F)c(CC(=O)N3CCOC(CNCc4cccc(-c5ccsc5)n4)C3)c2n1` (stereo not drawn) registered an XC50 of 1.17 µM.
The compound `O=C(Nc1ccc(Cl)cc1)Nc1cccc(-c2ccc(-c3nc4ccccc4[nH]3)cc2)c1` came in with an XC50 of 0.928 µM.
`CC(=O)Nc1nc(N)c2c(ccc3c2ccn3CC(C)C)n1` came in with an XC50 of 0.0696 µM.
Next, `CCCNC(=O)C1Cc2c([nH]c3cc(Br)ccc23)C2(CCN(CCc3ccccc3)CC2)N1` (stereo not drawn): 0.972 µM.
`CN(CCN)Cc1cccc(-c2cccc(-c3nc4cc(C(F)(F)F)ccc4[nH]3)c2)c1` had an XC50 of 0.509 µM.
`COc1ccc(O)c(Cc2cnc3nc(N)[nH]c(=O)c3c2C)c1` gave an XC50 of 0.234 µM.
The compound `CN(c1ccccc1)c1ccnc(NC(=N)Nc2ccc(Cl)cc2)n1` came in with an XC50 of 1.09 µM.
In turn, `CN(C)CCC1CCN(CCS(=O)(=O)c2cccc(Nc3ncc(-c4cccc(F)c4)cn3)c2)CC1` had an XC50 of 1.06 µM.
Consider `COc1ccc(C2(CNCC(O)c3cccc([N+](=O)[O-])c3)CCCCC2)cc1OC` (stereo not drawn), for which the XC50 was found to be 0.957 µM.
Consider `Cc1ccccc1C1CCN(C2CCC(NC(=O)/C=C/c3ccccc3C(F)(F)F)CC2)CC1` (stereo not drawn), for which the XC50 was 1.41 µM.
Compound `Cc1ccccc1C1CCN(C2CCC(NC(=O)c3cncc(-c4ccccc4)c3)CC2)CC1` (stereo not drawn) came in with an XC50 of 0.93 µM.
In turn, `CCNc1cc(C(=O)N[C@@H](Cc2ccccc2)[C@H](O)CNCc2cc(OC)cc(OC)c2)cc(N2CCCS2(=O)=O)c1` came in with an XC50 of 0.043 µM.
`COc1ccc2nccc([C@@H](O)CN3CCC(c4cc(-c5ccc(Cl)cc5)[nH]n4)CC3)c2n1` gave an XC50 of 0.737 µM.
With `CC(C)N1CCN(c2ccc(OCCCCN3CCN(c4cccc(Cl)c4Cl)CC3)c(C(F)(F)F)c2)CC1`, the XC50 is 0.815 µM.
Next, `c1cc(CN2CCCCC2)cc(-c2csc(-c3nc4ccccc4[nH]3)c2)c1`: 0.848 µM; `CN1CCN(Cc2cc3cc(NC(=O)/C=C/c4cccc(Cl)c4)ccc3s2)CC1`: 0.273 µM; `CC(=NNC(N)=O)C1=C(O)C(c2ccccc2)N(C2CCCCC2)C1=O` (stereo not drawn): 0.033 µM.
Next, `CN1CCN(c2cc3c(Nc4ccc5c(cnn5Cc5ccccc5)c4)ncnc3cn2)CC1`: 1.13 µM.
For `Clc1cc(Cl)c2cc(CNCCCNc3ccc4ccccc4n3)[nH]c2c1`, the XC50 worked out at 0.339 µM.
`O=C(Nc1ccc(Br)cc1)N1CCC(n2c(-c3ccccc3)nc3cccnc32)CC1` had an XC50 of 0.763 µM.
Take `O=C(/C=C/c1ccc(Cl)c(Cl)c1)NCCCCCN1CCC(NC(=O)Nc2cccc(Cl)c2Cl)CC1`: the XC50 worked out at 0.667 µM.
`CNc1ccc(CNCc2ccc(-c3ccc(-c4nc5cccc(C)c5[nH]4)cc3)cc2)cc1` displayed an XC50 of 0.319 µM.
As to `COc1ccc(-c2cnc3[nH]cc(-c4ccc(CCC(=O)O)cc4)c3c2)cn1`, the XC50 was found to be 0.773 µM.
The figure for `CCN(CC)S(=O)(=O)n1ncc2c3c(N)nc(N)nc3ccc21` is 0.0549 µM; for `Cc1occc1C(=O)Nc1nc(-c2ccccn2)nc2ccsc12` it is 0.899 µM.
Compound `CC1(C)N=C(N)N=C(N)N1c1ccc(Oc2ccccc2)cc1` yielded an XC50 of 0.341 µM.
Next, `COc1ccc(Cl)cc1C(=O)Nc1ccc(-c2nc3ccccc3[nH]2)cc1`: 0.774 µM.
In turn, `O=C(NC1CCCc2ccccc21)[C@@H]1CCCN1C(=O)c1ccc(O)c(-c2ccc(Cl)c(Cl)c2)c1` (stereo partly drawn) had an XC50 of 0.209 µM.
The compound `CN(C)Cc1ccc(CN2CCN(CCOc3ccc(-c4ccc(Cl)cc4)cc3)CC2)o1` yielded an XC50 of 1.02 µM.
`CC(O)C(C)(CO)NCc1ccc2c3c(cccc13)-c1ccccc1-2` (stereo not drawn) registered an XC50 of 0.818 µM.
Compound `CC(C)(C)c1ccccc1SC1=C(O)CC2(CCNCC2)OC1=O` gave an XC50 of 0.884 µM.
`Clc1cc(Nc2ncnc3sc(C#C[C@H]4CCCN4)cc23)ccc1OCc1cccnc1Cl` gave an XC50 of 0.569 µM.
The figure for `O=C(c1ccccc1[N+](=O)[O-])N(Cc1ccccc1)c1ccccn1` is 0.192 µM; for `O=C(/C=C/c1ccsc1)NC1CCC(CN2CCC(c3c[nH]c4ccccc34)CC2)CC1` (stereo not drawn) it is 1.12 µM.
With `Brc1ccc(C=NNc2nc3ccccc3[nH]2)cc1`, the XC50 came out at 0.7 µM.
`Cc1[nH]c(C)c(-c2ccc(-c3cccc(C(F)(F)F)c3)nc2)c(=O)c1Br` displayed an XC50 of 0.14 µM.
Next, `COc1cc2c(cc1OC)CC(NCc1ccc(-c3ccc4nc[nH]c4c3)cc1)C2`: 0.846 µM; `COc1ccc(CC(C)NCC(O)c2cccc(Br)c2)cc1` (stereo not drawn): 0.961 µM; `CCOCCCn1c(=N)c(C(=O)NCc2ccc(F)cc2)cc2c(=O)n3cccc(C)c3nc21`: 0.526 µM.
Next, `Nc1nc(Nc2cccc(O)c2)nc2ccccc12`: 0.791 µM; `CCNc1c2ccc(Cl)cc2nc2ccc(OC)cc12`: 0.843 µM.
`Nc1nc(N)c2cc(C(F)(F)F)ccc2n1` displayed an XC50 of 1.13 µM.
With `Cc1cccc(C(O)CNc2ccnc(Nc3cccc(-c4csc(C)n4)c3)n2)c1` (stereo not drawn), the XC50 stood at 0.675 µM.
The figure for `Cc1ccc2nc(N(CCCn3ccnc3)C(=O)C=Cc3cccs3)sc2c1` is 1.39 µM.
In the case of `COc1cccc(C(=O)C2CC2CN2CC=C(c3c[nH]c4ccc(OC)nc34)CC2)c1` (stereo not drawn), the XC50 turned out to be 0.526 µM.
Turning to `CC(CN(C)C)C(=O)Nc1ccc(-c2ccc(-c3nc4cc(C(F)(F)F)ccc4[nH]3)cc2)cc1` (stereo not drawn), the XC50 was determined as 0.747 µM.
`CC(=O)Nc1ccc2[nH]cc(C3CCN(CC4CCN(C(=O)/C=C/c5ccc(Cl)c(Cl)c5)CC4)CC3)c2n1` registered an XC50 of 0.161 µM.
In turn, `CC(CN(C)C)C(=O)Nc1cccc(-c2ccc(-c3nc4cc(F)ccc4[nH]3)s2)c1` (stereo not drawn) yielded an XC50 of 0.801 µM.
For the compound `CCCN1CCN(Cc2ccc(C(=O)Nc3ccc(Cl)cc3)cc2)CC1`, the XC50 was 0.0485 µM.
As for `Cc1ccccc1C1CCN(C2CCC(NC(=O)/C=C/c3cccc(Cl)c3Cl)CC2)CC1` (stereo not drawn), the XC50 came out at 1.03 µM.
Compound `COc1ccc(C2CCN(CCCNC(=O)c3ccc(NC(=O)c4ccc(Cl)cc4)cc3)CC2)c(OC)c1` had an XC50 of 0.763 µM.
For `CCC(=O)c1c(C)n(-c2ncnc3c2nc(C)n3-c2ccc(C)cc2C)c2ccccc12`, the XC50 worked out at 0.645 µM.
Next, `Cc1ccccc1Nc1nc(NCc2ccccc2)nc2ccccc12`: 1.02 µM.
